Values quoted from earlier work as cited in patent publication US6821523B2, “Topical administration of pharmacologically active bases in the treatment of warts” (Dermatrends, Inc., priority 2002, dated 2004).

Key:
cutaneous warts = settings: for efficacy in words: survey of clinical trials, local wart treatment

## O=c1[nH]cc(F)c(=O)[nH]1 [5-fluorouracil]
Cutaneous warts
  efficacy in words: weak at best

## O=P([O-])([O-])O.[K+].[K+] [Potassium phosphate, dibasic]
other
  pH of Aqueous Solution, alkalinity in words: Aqueous solution is slightly alkaline

## O=B[O-].[Na+] [Sodium metaborate]
other
  pH of Aqueous Solution, alkalinity in words: Strongly alkaline

## O.O.O.O.O.O.O.O.O.O.O.O.O=P([O-])([O-])[O-].[Na+].[Na+].[Na+] [Sodium phosphate, tribasic dodecahydrate]
1.0% (1%)
  pH of Aqueous Solution (concentration): 11.9 (1.0%)

## O=C(O)c1ccccc1O [salicylic acid]
Cutaneous warts; simple topical treatments, vs 48% for placebos
  cure rates: about 75%

## bleomycin
Cutaneous warts
  efficacy in words: weak at best
